Measurements published in patent US10464941B2, “Therapeutic compounds” (REGENTS OF THE UNIVERSITY OF MINNESOTA, priority 2015, dated 2019).

What was measured:
[1] = biological target: T1, CCR5 receptors expressed in HEK-293 cells (Homo sapiens, UniProt P51681); assay: Intracellular calcium release, CCL5-stimulated CCR5 in HEK-293 cells; type: cell-based; settings: CCR5 expressing HEK cells stimulated by CCL5
T1 construct: expressed in transfected cells; host or cells: HEK-293 cells, transient transfection with Lipofectamine 2000
T1 sequence (P51681 whole entry): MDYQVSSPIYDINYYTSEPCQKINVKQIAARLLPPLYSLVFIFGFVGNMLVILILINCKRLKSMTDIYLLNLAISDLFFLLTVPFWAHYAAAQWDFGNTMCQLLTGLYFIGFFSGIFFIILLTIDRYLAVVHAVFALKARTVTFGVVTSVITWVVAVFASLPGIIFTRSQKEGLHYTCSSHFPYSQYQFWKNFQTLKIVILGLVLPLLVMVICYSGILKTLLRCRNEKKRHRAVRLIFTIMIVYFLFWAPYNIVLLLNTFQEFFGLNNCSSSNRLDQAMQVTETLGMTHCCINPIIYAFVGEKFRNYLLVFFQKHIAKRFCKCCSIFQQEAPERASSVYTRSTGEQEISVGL
Protocol: Briefly, HEK-293 cells were cultured at 37° C. in Dulbelcco's modified Eagle's medium supplemented with 10% fetal bovine serum and 1% Penicillin/Streptomycin. Then 100 mm^2 were transiently transfected with CCR5 receptor cDNA using OptiMEM-1 medium (Invitrogen) and Lipofectamine 2000 (Invitrogen, Carlsbad, Calif.) reagent according to manufacturer's protocol (1:2 wt/vol ratio for DNA:Lipofectamine; 16 μg DNA: 32 μl Lipofectamine). The cells were seeded into 96 well plates (half-area; Corning) at 20,000 cells/well after 24 hours and assayed 48 hours after transfection using the FLIPR calcium kit (Molecular Devices) in a Flexstation-III apparatus (Molecular Devices). Cells were incubated with the calcium dye for 45 minutes at 37° C. before the antagonists were added to each well at the concentration listed, and incubated at 37° C. for 15 minutes. The control agonist, CCL5 (RANTES), was added at a concentration that elicited an 80% maximal response in untreated cells (100 nM) to each well and the calcium response measured with and without antagonists for 90 seconds. The change in RFU was calculated by subtracting the minimum relative fluorescent unit (RFU) from the maximum RFU response, replicated 6 times and averaged. Each experiment was repeated at least 3 times and the mean±SEM was plotted for each treatment group. Plates were 80-90% confluent, cells

control mice = assay: Radiant heat tail-flick antinociception, control (LPS-untreated) mice; type: in vivo; settings: control mice
Excerpt: Pain is a hallmark of many inflammatory conditions.

LPS-pretreated mice = assay: animal or person
Protocol: Male ICR-CD1 mice (17-25 g; Harlan, Madison, Wis.), C3H mice (15-20 g, National Cancer Institute, Bethesda, Md.) or TLR4 knock-out mice (gift from Dr. Sabita Roy) were housed, 4 to a small box in a temperature- and humidity-controlled environment with unlimited access to food and water. They were maintained on a 12 h light/dark cycle. All experiments were approved by the Institutional Animal Care and Use Committee of the University of Minnesota (Minneapolis, Minn.).
The tail flick assay is used to test for antinociception described by D'Amour and Smith^64 and modified by Dewey et. al.^65 Mice are held gently in one hand with the tail positioned in the apparatus (Tail Flick Analgesia Meter, Columbus Instruments, Columbus, Ohio) for radiant heat stimulus. The tail-flick response is elicited by applying radiant heat to the dorsal side of the tail. The test latency is measured before drug treatment (control) and again after the drug treatment (test) at the peak time of the compound, a 10 s maximum cut-off time is used to prevent damage to the tail. Antinociception is quantified according to the method of Harris and Pierson^66 as the percent maximal possible effect (% MPE) which is calculated as: % MPE=(Test−Control/10−Control)×100
A minimum of three groups of eight to ten mice are used for each dose response curve, and each mouse is used only once.
The compounds were tested for acute tolerance by comparing the ED80-90 dose measured on day 1 to the same dose administered and retested 24 hours later on the same mouse.
Compounds were dissolved in 5% DMSO and diluted to less than 1% DMSO for injection. These compounds were administered in a volume of 5-μl either i.c.v (Haley and McCormick) or intrathecal (i.t.) as described for mice by Hylden and Wilcox^67 in conscious mice. […] Time course studies, including the times 5, 10, 20, 30 and 60 minutes were used to determine the peak antinociception.
Pain is a hallmark of many inflammatory conditions. […] Antinociception was evaluated using the radiant heat-induced tailflick assay. Morphine was employed as a standard opioid agonist under these conditions.

[2] = tested on: CFA-induced mechanical hyperalgesia mouse model; assay: Complete Freund's Adjuvant (CFA) mechanical hyperalgesia, electronic von Frey; type: in vivo, mice; settings: i.t.
Protocol: Before injection of CFA baseline withdrawal thresholds (g) were obtained from a mechanical stimulation using an electronic von Frey anesthesiometer (IITC Life Sciences, Woodland Hills, USA) by applying an accurate force on both left and right hind paw. (2,3) The left hindpaws were then injected (intraplantar) with a 50% solution of CFA (10 μg, Sigma-Aldrich) in water while the mice are under isoflurane anesthesia (10). Twenty-four hours later the withdrawal threshold (g) was again measured prior to and after the test compound i.t. at 10, 20, 30 and 60 minutes to determine the peak time and subsequent ED50. % MPE was calculated ((Time-point withdrawal threshold with drug−CFA withdrawal threshold)/(Day 0 withdrawal threshold−CFA withdrawal threshold))*100 (Wade, C. L., et al., PLoS One 2013, 8, e79239/1-e79239/11, 11 pp; Martinov, T., et al., J Vis Exp 2013, e51212; Sorge, R. E., et al., J. Neurosci. 2011, 31, 15450-15454).

[3] = tested on: mice with cisplatin-induced hyperalgesia; assay: Cisplatin-induced peripheral neuropathy, mechanical hyperalgesia (von Frey); type: in vivo, C3H/HeJ mice; settings: cisplatin model
Protocol: Adult male C3H/HeJ mice were tested for mechanical paw withdrawal responses on 2 consecutive days prior to treatment by determining the frequency of hind paw withdrawal evoked by a standard von Frey monofilament with a bending force of 3.9 mN applied to the plantar surface of the hind paws. Mice were then given 1 mg/kg of cisplatin intraperitoneal (i.p.) daily for 7 consecutive days and on day 14 post-injection, mechanical hyperalgesia was assessed. Compounds were administered intrathecally (i.t.) and i.p. weekly to determine peak time effects and ED50/80.

SMILES | inhibiting calcium release (compared with TAK-220) [1] | CONTROLS i.c.v./i.t. ratio (control mice) | CONTROLS ED50 (CI) i.c.v. (control mice; i.c.v., tail flick) [pmol/mouse] | CONTROLS ED50 (CI) i.t. (control mice; i.t., tail flick) [pmol/mouse] | LPS pretreated i.c.v./i.t. ratio (LPS-pretreated mice; LPS 1 mg/kg 24 hours i.p.) | LPS pretreated ED50 (CI) i.c.v. (LPS-pretreated mice; LPS 1 mg/kg 24 hours i.p., i.c.v., tail flick) [pmol/mouse] | LPS pretreated ED50 (CI) i.t. (LPS-pretreated mice; LPS 1 mg/kg 24 hours i.p., i.t., tail flick) [pmol/mouse] | ED50 values (95% CI) LPS (thermal) (LPS-pretreated mice; i.t., LPS thermal hyperalgesia model) [pmol/mouse] | tolerance upon repeated administration (LPS-pretreated mice; i.t., LPS-pretreated mice) | ED50 values (95% CI) CFA (mechanical) [2] [pmol/mouse] | ED50 (95% CI) i.p. ([3]; i.p.) [pmol/mouse] | tolerance ([3]; i.p.) | tolerance ([3]; i.p., listed as morphine) | ED50 (95% CI) i.t. ([3]; i.t.) [pmol/mouse] | tolerance ([3]; i.t.)
CNC(=O)COCC(=O)N1CCC(CC(=O)N(CCCN2CCC(Cc3ccc(C(N)=O)cc3)CC2)c2ccc(C)c(Cl)c2)CC1 [Compound 8c, N-(3-(4-(4-carbamoylbenzyl)piperidin-1-yl)propyl)-N-(3-chloro-4-methylphenyl)-1-(2-(2-(methylamino)-2-oxoethoxy)acetyl)piperidine-4-carboxyamide] | equally potent | – | – | – | – | – | – | – | – | – | – | – | – | – | –
CN1CC[C@]23c4c5ccc(O)c4O[C@H]2[C@@H](O)C=C[C@H]3[C@H]1C5 [Morphine, morphine, reference compound] | – | 11.1 | 301 | 27.0 | 8.60 | 301 | 35.0 | 35 | exhibited tolerance | 15 | 14.28 | significant tolerance | exhibits 24 h tolerance | 27.44 | significant tolerance
